Test [1] deals with R28. Nature of the test: Cytoprotective activity against glutamate-induced cytotoxicity in rat R28 cells assessed as increase in cell viability at 10 uM incubated for 24 hrs in presence of glutamate by MTT assay. The test is classed as functional, cell-based. A general note: Tetrazolium dyes change colour on reduction, which living cells bring about.
Test [2] relates to R28. Description: Cytoprotective activity against hydrogen peroxide-induced cytotoxicity in rat R28 cells assessed as increase in cell viability at 10 uM preincubated for 24 hrs followed by incubation with H2O2 for 24 hrs by MTT assay. Type of test: functional, cell-based.

Among the data in ChEMBL document CHEMBL6092158, “Green synthesis of neuroprotective spirocyclic chalcone derivatives and their role in protecting against traumatic optic nerve injury” (Eur J Med Chem, 2024) are Activity values, retold here.

Molecules are shown by their SMILES. Calls of active or inactive are those of the source. No cut-off for these calls is given here.

As to `COc1cc(C(=O)[C@@H]2[C@@H](c3ccc(O)c(O)c3)CN(C)[C@@]23C(=O)Nc2ccccc23)cc(OC)c1OC`, the outcome in the test on R28 [1] and with R28 [2] was Active.
`CN1C[C@H](c2ccc(O)c(O)c2)[C@@H](C(=O)c2ccc(Cl)cc2Cl)[C@]12C(=O)Nc1ccccc12`: the result with R28 [1] and in the test with R28 [2] was Active.
As for `CN1C[C@H](c2ccc(O)c(O)c2)[C@@H](C(=O)c2ccc([N+](=O)[O-])cc2)[C@]12C(=O)Nc1ccccc12`, the result with R28 [1] and with R28 [2] was inactive.
Regarding `CN1C[C@H](c2ccc(O)c(O)c2)[C@@H](C(=O)c2cccc(O)c2)[C@]12C(=O)Nc1ccccc12`, the result with R28 [1] and in the test on R28 [2] was Active.
`CN1C[C@H](c2ccc(O)c(O)c2)[C@@H](C(=O)c2cccc(Cl)c2)[C@]12C(=O)Nc1ccccc12`: the result in the test with R28 [1] and in the test on R28 [2] was Active.
Turning to `CN1C[C@H](c2ccc(O)c(O)c2)[C@@H](C(=O)c2cccc(Br)c2)[C@]12C(=O)Nc1ccccc12`, the result in the test with R28 [1] and in the test on R28 [2] was Active.
Consider `CN1C[C@H](c2ccc(O)c(O)c2)[C@@H](C(=O)c2ccccc2)[C@]12C(=O)Nc1ccccc12`, for which the outcome in the test on R28 [1] and in the test with R28 [2] was Active.
As for `CN1C[C@H](c2ccc(O)c(O)c2)[C@@H](C(=O)c2cc(C(F)(F)F)cc(C(F)(F)F)c2)[C@]12C(=O)Nc1ccccc12`, the outcome in the test with R28 [1] and with R28 [2] was inactive.
Regarding `CN1C[C@H](c2ccc(O)c(O)c2)[C@@H](C(=O)c2ccc(Br)cc2)[C@]12C(=O)Nc1ccccc12`, the result in the test with R28 [1] and in the test with R28 [2] was Active.
Take `CN1C[C@H](c2ccc(O)c(O)c2)[C@@H](C(=O)c2ccccc2C(F)(F)F)[C@]12C(=O)Nc1ccccc12`: the result with R28 [1] and with R28 [2] was inactive.
With `COc1cc(C(=O)[C@@H]2[C@@H](c3ccc(O)c(O)c3)CN(C)[C@@]23C(=O)Nc2ccccc23)ccc1O`, the result in the test with R28 [1] and with R28 [2] was Active.
On to `COc1ccc(C(=O)[C@@H]2[C@@H](c3ccc(O)c(O)c3)CN(C)[C@@]23C(=O)Nc2ccccc23)cc1`, for which the result in the test with R28 [1] and in the test with R28 [2] was Active.
Turning to `CN1C[C@H](c2ccc(O)c(O)c2)[C@@H](C(=O)c2ccc(O)cc2)[C@]12C(=O)Nc1ccccc12`, the result in the test on R28 [1] and in the test with R28 [2] was Active.
Take `CN1C[C@H](c2ccc(O)c(O)c2)[C@@H](C(=O)c2cccc(F)c2)[C@]12C(=O)Nc1ccccc12`: the result in the test with R28 [1] and in the test with R28 [2] was Active.
Take `CN1C[C@H](c2ccc(O)c(O)c2)[C@@H](C(=O)c2ccc(F)cc2)[C@]12C(=O)Nc1ccccc12`: the result in the test on R28 [1] and in the test with R28 [2] was Active.
Take `CN1C[C@H](c2ccc(O)c(O)c2)[C@@H](C(=O)c2cccc(C(F)(F)F)c2)[C@]12C(=O)Nc1ccccc12`: the result in the test with R28 [1] and with R28 [2] was inactive.
`CCCc1ccc(C(=O)[C@@H]2[C@@H](c3ccc(O)c(O)c3)CN(C)[C@@]23C(=O)Nc2ccccc23)cc1`: the result with R28 [1] and in the test with R28 [2] was Active.
As to `COc1ccc(C(=O)[C@@H]2[C@@H](c3ccc(O)c(O)c3)CN(C)[C@@]23C(=O)Nc2ccccc23)cc1OC`, the result with R28 [1] and with R28 [2] was Active.
For `CN1C[C@H](c2ccc(O)c(O)c2)[C@@H](C(=O)c2ccc(S(C)(=O)=O)cc2)[C@]12C(=O)Nc1ccccc12`, the result in the test with R28 [1] and in the test with R28 [2] was inactive.
For `CN1C[C@H](c2ccc(O)c(O)c2)[C@@H](C(=O)c2ccc(OC(F)(F)F)cc2)[C@]12C(=O)Nc1ccccc12`, the result with R28 [1] and in the test on R28 [2] was Active.
`CN1C[C@H](c2ccc(O)c(O)c2)[C@@H](C(=O)c2ccc(Cl)cc2)[C@]12C(=O)Nc1ccccc12`: the result in the test with R28 [1] and with R28 [2] was Active.
In the case of `CN1C[C@H](c2ccc(O)c(O)c2)[C@@H](C(=O)c2ccc(Br)cc2F)[C@]12C(=O)Nc1ccccc12`, the outcome in the test with R28 [1] and in the test on R28 [2] was Active.
